The record followed here is ChEMBL document CHEMBL1201862, “PubChem BioAssay data set” (2004).

For one test, the target named is Beta-galactosidase (Escherichia coli, UniProt Q8VNN2). Nature of the test: Dose response counterscreen for EBI2 assay utilizing the enzyme, b-galactosidase. The test is classed as functional. On the technique in general: The purpose of a counterscreen is to sort out artefacts and off-target activity.
The target in test [1] is Protein-tyrosine kinase 2-beta (Homo sapiens, UniProt Q14289).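 Also: potency of inhibitors of PYK2 kinase phosphorylation of poly-GT substrate.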
The target of test [2] is T1, Beta-lactamase (Pseudomonas aeruginosa, UniProt Q79MP6). Nature of the test: […] counterscreen for selective VIM-2 inhibitors: dose response biochemical high throughput screening assay to identify inhibitors of IMP-1 metallo-beta-lactamase.
The target of test [3] is T1, Beta-lactamase. As to the kind of experiment: inhibition of IMP-1 beta-lactamase activity – biochemical, epi-absorbance, selectivity assay for VIM-2 inhibitor project, dose response (AID 1920).
In test [4] the target is Beta-lactamase (Salmonella choleraesuis (strain SC-B67), UniProt Q5J463). Nature of the test: Epi-absorbance-based counterscreen for selective VIM-2 inhibitors: dose response biochemical high throughput screening assay to identify inhibitors of TEM-1 serine-beta-lactamase.
For the next test, the target named is T2, Caspase-6 (Homo sapiens, UniProt P55212).
T2 sequence (P55212 whole entry): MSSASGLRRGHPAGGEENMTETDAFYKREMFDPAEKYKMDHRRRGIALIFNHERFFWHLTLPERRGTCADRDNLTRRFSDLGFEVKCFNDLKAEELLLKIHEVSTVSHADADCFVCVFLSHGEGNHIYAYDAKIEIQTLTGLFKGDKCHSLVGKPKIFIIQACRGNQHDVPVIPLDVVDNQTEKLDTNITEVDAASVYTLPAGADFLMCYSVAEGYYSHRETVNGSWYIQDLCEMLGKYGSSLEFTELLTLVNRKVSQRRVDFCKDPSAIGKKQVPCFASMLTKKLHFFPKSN
As to the kind of experiment: inhibition of CASP6 peptide cleavage – biochemical, VEID-R110 fluorescence, cherry-pick, dose response (AID 720632).

A short description of test [5]: inhibition of ARNT PAS-B/TACC3 complex formation – biochemical, AlphaScreen, cherry-picked samples, confirmation (AID 651703).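 Also: His-tagged ARNT PAS-B domain paired with GST-TACC3 E629A dimer coactivator fragment; potency of inhibitors that break up the complex and lower AlphaScreen signal.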 Type of test: functional, Homo sapiens. (In general: Bead proximity is the source of the signal in Alpha formats.)
A short description of test [6]: intracellular Trypanosoma cruzi inhibitors in host cells – cell-based, plate reader, cherry-pick samples, set 3, dose response (AID 651818).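 Also: compounds incubated with infected cells for about four days.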 Type of test: functional.
Test [7] addresses Hepatocyte nuclear factor 4-alpha (Homo sapiens, UniProt P41235). The test is classed as functional, cell-based.
The next test has as its system A549. Nature of the test: viability loss in A549 cells – cell-based, plate reader, cherry-pick samples, cytotoxicity control, dose response (AID 687028). To be noted: Homo sapiens. Type of test: functional.
In test [8] the target is Adenosylmethionine-8-amino-7-oxononanoate aminotransferase (Mycobacterium tuberculosis, UniProt P9WQ81). Nature of the test: Mycobacterium tuberculosis BioA enzyme inhibitor Measured in Biochemical System Using Plate Reader - 2163-02_Inhibitor_Dose_CherryPick_Activity. The test is classed as functional, Mycobacterium tuberculosis UT205.
Test [9] is described as follows: cytotoxicity in HEK293 background cells – cell-based, dry powder, set 2, counter-screen for EBV LMP1 inhibitor project, dose response (AID 624374). The test is classed as functional.
Test [10] in a line: viability of HT1080 fibrosarcoma cells – cell-based, ATPLite luminescence, set 1, cytotoxicity control for MT1-MMP activation inhibitor project, dose response (AID 652252). The test is classed as functional. On the technique in general: In ATP-based viability assays light output follows the ATP content of the culture.
Test [11] addresses Matrix metalloproteinase-14 (Homo sapiens, UniProt P50281). As to the kind of experiment: Dose Response confirmation of uHTS hits for a small molecule inhibitors of MT1-MMP activation in a fluorescence assay set 1. The test is classed as functional.

Calls of active or inactive are those of the source. Bounds are passed on as bounds.

T1 sequence (Q79MP6 whole entry): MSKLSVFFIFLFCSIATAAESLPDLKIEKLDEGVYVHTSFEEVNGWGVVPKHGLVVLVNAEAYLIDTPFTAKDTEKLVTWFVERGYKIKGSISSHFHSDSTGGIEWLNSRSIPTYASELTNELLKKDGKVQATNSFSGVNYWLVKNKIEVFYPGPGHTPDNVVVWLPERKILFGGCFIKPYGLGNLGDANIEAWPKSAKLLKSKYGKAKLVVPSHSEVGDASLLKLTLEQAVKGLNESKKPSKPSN
Sequence of Hepatocyte nuclear factor 4-alpha (P41235 whole entry): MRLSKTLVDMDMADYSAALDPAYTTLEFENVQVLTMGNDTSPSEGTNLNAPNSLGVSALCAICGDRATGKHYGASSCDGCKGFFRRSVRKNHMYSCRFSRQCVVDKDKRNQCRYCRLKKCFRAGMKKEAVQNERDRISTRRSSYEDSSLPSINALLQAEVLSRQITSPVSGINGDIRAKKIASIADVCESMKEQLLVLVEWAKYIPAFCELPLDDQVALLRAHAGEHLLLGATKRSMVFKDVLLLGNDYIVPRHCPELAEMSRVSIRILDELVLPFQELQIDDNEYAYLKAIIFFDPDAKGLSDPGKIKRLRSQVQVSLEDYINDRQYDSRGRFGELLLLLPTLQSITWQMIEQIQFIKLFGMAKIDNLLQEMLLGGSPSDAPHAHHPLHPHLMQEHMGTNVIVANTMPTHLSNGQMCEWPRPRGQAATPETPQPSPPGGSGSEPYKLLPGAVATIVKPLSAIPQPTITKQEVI
Sequence of Protein-tyrosine kinase 2-beta (Q14289 whole entry): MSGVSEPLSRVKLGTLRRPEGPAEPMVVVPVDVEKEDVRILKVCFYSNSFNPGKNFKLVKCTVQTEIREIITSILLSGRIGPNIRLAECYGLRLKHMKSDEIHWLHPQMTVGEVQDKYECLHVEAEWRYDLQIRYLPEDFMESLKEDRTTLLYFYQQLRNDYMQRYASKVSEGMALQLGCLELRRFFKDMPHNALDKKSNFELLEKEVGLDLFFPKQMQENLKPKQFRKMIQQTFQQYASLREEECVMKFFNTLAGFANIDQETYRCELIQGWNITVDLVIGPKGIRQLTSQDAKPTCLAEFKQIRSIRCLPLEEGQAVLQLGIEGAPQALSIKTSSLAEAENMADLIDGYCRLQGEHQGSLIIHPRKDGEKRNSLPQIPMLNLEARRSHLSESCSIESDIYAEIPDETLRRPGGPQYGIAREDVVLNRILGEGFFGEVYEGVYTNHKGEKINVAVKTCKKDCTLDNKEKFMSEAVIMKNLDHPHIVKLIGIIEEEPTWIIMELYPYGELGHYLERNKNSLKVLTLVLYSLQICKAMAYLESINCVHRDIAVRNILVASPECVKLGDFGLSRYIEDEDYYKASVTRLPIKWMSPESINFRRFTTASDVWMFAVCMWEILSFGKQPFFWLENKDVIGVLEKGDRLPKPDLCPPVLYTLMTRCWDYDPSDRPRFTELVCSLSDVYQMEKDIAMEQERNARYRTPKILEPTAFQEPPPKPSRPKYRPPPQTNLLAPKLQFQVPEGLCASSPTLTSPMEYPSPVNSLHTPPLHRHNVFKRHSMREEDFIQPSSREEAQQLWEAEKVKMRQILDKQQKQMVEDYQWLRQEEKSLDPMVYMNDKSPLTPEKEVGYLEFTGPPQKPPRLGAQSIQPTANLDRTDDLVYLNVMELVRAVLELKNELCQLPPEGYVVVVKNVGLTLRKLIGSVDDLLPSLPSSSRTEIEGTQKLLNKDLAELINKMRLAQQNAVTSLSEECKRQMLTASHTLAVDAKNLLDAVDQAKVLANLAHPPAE
Sequence of Beta-lactamase (Salmonella choleraesuis (strain SC-B67), UniProt Q5J463) (Q5J463 whole entry): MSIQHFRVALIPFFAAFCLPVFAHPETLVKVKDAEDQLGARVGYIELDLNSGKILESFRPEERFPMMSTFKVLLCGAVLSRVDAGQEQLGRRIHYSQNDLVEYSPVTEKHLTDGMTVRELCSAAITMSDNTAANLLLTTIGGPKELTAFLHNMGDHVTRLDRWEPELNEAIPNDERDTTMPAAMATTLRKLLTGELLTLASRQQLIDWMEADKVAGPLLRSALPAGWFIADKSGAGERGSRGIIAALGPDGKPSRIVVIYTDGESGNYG
Sequence of Adenosylmethionine-8-amino-7-oxononanoate aminotransferase (P9WQ81 whole entry): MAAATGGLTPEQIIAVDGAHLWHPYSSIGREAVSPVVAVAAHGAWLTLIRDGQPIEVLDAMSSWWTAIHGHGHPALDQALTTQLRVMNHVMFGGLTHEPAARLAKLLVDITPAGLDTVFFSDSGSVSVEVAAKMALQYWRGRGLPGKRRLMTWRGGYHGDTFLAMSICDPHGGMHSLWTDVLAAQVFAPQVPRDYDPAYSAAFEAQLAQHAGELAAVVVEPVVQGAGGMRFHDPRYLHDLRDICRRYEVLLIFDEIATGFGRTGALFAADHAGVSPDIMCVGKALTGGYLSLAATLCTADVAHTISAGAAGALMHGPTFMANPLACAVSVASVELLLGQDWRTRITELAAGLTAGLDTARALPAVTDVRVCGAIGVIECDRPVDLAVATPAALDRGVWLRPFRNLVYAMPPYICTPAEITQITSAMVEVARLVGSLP
Sequence of Beta-galactosidase (Q8VNN2 whole entry): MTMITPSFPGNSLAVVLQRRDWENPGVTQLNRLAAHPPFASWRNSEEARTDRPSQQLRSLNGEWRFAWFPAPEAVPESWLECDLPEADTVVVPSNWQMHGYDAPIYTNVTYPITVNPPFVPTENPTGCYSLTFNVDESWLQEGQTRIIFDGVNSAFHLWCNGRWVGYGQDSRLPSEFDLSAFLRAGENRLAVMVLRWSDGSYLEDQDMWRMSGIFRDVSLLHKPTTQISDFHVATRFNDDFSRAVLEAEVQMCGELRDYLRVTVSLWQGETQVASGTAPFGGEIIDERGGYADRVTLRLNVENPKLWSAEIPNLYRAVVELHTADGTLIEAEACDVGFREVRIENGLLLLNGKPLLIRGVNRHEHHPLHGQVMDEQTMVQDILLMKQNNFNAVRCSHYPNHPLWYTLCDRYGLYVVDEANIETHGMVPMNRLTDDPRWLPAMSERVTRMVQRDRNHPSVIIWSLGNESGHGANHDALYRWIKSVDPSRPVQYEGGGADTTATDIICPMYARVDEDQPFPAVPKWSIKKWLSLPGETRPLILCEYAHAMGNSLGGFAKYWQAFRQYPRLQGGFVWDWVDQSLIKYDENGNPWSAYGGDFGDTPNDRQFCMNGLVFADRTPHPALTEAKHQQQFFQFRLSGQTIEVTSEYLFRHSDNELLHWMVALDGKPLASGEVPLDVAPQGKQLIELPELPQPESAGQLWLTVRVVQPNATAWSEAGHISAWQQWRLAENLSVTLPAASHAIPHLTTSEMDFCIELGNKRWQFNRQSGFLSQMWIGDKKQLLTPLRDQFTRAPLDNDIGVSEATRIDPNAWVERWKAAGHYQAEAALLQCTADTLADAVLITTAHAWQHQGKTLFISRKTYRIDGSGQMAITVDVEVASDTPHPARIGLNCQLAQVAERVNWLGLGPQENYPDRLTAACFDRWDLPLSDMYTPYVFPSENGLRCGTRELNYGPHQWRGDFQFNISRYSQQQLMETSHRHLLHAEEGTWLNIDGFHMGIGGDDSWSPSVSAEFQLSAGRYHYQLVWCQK

Turning to `O=C(c1ccc(-n2cccn2)cc1)N1CCN(c2ncccc2C(F)(F)F)CC1`, at Beta-galactosidase, the IC50 is > 80 µM (inactive).
Turning to `O=P(O)(O)c1ccccc1OCc1ccccc1`, the IC50 in [1] was 2.21 µM (active); at Beta-lactamase [2], > 59.6 µM (inactive); on Beta-lactamase [3] it was > 59.6 µM (inactive); on Beta-lactamase [4], > 59.6 µM (inactive).
Turning to `Cc1ccc2[nH]c3c(c2c1)CCCC3NCCO` (centres undefined), the AC50 at Caspase-6 was 22.2 µM (active); in [5], 135 µM (active).
With `COc1ccc(NC(=O)Nc2ccc3c(c2)CC(=O)N([C@H](C)CO)C[C@H](C)[C@H](CN(C)Cc2ccc(C(=O)Nc4ccccc4N)cc2)O3)cc1`, the AC50 in test [6] is 4.17 µM (active).
As to `COc1ccc(C(C(=O)Nc2c(C)cccc2C)n2c(=O)c(-c3ccco3)nc3ccccc32)cc1` (centres undefined), the IC50 in [7] was 2.42 µM (active).
`Cc1cccc(OCC(=O)NNC(=O)C2CCCCC2C(=O)O)c1` (centres undefined): the AC50 in the test on A549 is 26.4 µM (active).
`O=C(COc1ccc2ccc(=O)oc2c1)Nc1cccnc1`: the AC50 in test [8] is 13.6 µM (active).
In turn, `C[C@@H](NC(=O)C[C@H]1C[C@@H]2c3cc(NC(=O)c4cccnc4)ccc3O[C@@H]2[C@@H](CO)O1)c1ccccc1` yielded an AbsAC35 in test [9] of 222.38 µM.
Regarding `O=C(CF)NC(Nc1cccc2cccnc12)C(Cl)(Cl)Cl` (centres undefined), the IC50 was > 10 µM (active) in test [10] and 2.03 µM (active) in [11].

As usually defined, the IC50 is the midpoint of a concentration-inhibition curve. By AC50 is commonly meant the midpoint of the concentration-response curve, whichever way the signal moves.
